This passage reports IC50 results from publication PMC4208647, “Essential role of vesicular nucleotide transporter in vesicular storage and release of nucleotides in platelets” (Physiological Reports, 2014).

Common to all, as to type: biochemical
The target in test [1] is T1, VEAT (vesicular excitatory amino acid transporter) (Mus musculus, UniProt Q8BN82).
T1 construct: gene Slc17a5; recombinant, expressed in insect cells or E. coli, Ni-NTA purified, reconstituted in asolectin liposomes
T1 sequence (Q8BN82 1-495): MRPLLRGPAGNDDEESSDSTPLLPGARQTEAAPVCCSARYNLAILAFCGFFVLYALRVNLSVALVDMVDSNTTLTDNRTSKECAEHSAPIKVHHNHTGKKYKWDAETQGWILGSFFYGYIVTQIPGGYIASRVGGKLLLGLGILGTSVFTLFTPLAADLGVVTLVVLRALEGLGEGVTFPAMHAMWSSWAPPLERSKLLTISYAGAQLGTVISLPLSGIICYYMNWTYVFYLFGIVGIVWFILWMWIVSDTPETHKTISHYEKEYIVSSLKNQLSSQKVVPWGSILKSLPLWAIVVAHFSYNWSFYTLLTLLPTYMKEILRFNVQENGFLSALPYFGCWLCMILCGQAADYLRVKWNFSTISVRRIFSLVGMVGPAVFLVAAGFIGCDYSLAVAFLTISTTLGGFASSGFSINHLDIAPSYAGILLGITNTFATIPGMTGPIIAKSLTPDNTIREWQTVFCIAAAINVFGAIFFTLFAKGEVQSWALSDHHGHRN
Description: inhibition of valinomycin-evoked radiolabelled substrate uptake into proteoliposomes. The text has this: inhibition of valinomycin-evoked radiolabelled substrate uptake into proteoliposomes on VEAT (vesicular excitatory amino acid transporter)

Test [2] concerns the target T2, VMAT2 (vesicular monoamine transporter 2) (Rattus norvegicus, UniProt Q01827).
T2 construct: gene Slc18a2; recombinant, expressed in insect cells or E. coli, Ni-NTA purified, co-reconstituted with bacterial F-ATPase in liposomes
Briefly: inhibition of ATP-driven radiolabelled substrate uptake into proteoliposomes with F-ATPase. The text has this: inhibition of ATP-driven radiolabelled substrate uptake into proteoliposomes with F-ATPase on VMAT2 (vesicular monoamine transporter 2)

Test [3] addresses T3, VNUT (vesicular nucleotide transporter, SLC17A9 protein) (Homo sapiens, UniProt Q9BYT1).
T3 construct: recombinant, expressed in insect cells or E. coli, octylglucoside-solubilized, Ni-NTA purified, reconstituted in asolectin liposomes
T3 sequence (Q9BYT1 1-436): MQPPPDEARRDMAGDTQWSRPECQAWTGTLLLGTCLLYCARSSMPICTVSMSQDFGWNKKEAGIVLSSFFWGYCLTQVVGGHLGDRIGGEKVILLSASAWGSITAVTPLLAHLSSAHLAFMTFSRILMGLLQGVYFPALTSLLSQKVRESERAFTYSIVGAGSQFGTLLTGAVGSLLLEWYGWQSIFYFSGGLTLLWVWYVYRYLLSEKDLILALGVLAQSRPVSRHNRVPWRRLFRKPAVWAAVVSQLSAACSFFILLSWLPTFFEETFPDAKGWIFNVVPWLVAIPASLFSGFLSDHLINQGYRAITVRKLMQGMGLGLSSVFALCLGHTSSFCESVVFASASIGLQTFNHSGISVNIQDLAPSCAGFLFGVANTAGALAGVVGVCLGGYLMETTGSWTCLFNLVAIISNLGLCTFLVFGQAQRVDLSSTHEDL
Briefly: inhibition of valinomycin-evoked radiolabelled substrate uptake into proteoliposomes.

For test [4], the target named is T4, VGAT (vesicular GABA transporter) (Rattus norvegicus, UniProt O35458).
T4 construct: gene Slc32a1; recombinant, expressed in insect cells or E. coli, Ni-NTA purified, reconstituted in asolectin liposomes
T4 sequence (O35458 1-525): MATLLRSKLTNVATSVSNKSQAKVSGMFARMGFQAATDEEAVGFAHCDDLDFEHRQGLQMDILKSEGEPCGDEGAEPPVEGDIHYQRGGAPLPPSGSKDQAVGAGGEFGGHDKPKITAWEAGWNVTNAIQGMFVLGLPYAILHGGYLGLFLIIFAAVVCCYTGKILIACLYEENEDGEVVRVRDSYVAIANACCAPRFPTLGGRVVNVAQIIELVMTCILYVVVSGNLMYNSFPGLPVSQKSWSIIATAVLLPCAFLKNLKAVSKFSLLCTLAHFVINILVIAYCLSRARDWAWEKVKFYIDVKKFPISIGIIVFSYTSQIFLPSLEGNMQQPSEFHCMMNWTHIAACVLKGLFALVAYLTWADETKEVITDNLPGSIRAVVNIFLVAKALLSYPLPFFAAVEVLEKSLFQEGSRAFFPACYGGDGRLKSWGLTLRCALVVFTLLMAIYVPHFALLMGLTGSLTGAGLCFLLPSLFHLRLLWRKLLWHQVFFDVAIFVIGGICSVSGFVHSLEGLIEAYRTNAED
Described as above. The text has this:
inhibition of valinomycin-evoked radiolabelled substrate uptake into proteoliposomes on VGAT (vesicular GABA transporter)

Test [5] concerns the target T5, VAChT (vesicular acetylcholine transporter) (Homo sapiens, UniProt Q16572).
T5 construct: gene SLC18A3; recombinant, expressed in insect cells or E. coli, Ni-NTA purified, co-reconstituted with bacterial F-ATPase in liposomes
T5 sequence (Q16572 1-532): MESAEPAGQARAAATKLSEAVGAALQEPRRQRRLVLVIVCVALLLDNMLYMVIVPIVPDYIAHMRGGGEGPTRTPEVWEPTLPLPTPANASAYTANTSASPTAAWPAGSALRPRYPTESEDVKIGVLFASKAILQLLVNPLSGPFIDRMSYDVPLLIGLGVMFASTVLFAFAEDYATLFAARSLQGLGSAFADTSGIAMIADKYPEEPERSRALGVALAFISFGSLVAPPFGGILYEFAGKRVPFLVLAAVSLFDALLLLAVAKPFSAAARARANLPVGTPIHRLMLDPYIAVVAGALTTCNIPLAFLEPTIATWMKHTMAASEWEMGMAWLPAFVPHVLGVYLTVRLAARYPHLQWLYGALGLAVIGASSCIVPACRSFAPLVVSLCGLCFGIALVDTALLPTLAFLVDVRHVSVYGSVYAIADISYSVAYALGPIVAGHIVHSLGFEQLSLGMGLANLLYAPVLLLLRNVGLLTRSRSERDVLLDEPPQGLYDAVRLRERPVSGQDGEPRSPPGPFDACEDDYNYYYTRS
Description: inhibition of ATP-driven radiolabelled substrate uptake into proteoliposomes with F-ATPase. The text has this: inhibition of ATP-driven radiolabelled substrate uptake into proteoliposomes with F-ATPase on VAChT (vesicular acetylcholine transporter)

[6] abbreviates: read-out: IC50 (μmol/L) / Acetoacetate.
[7] abbreviates: read-out: IC50 (μmol/L) / Glyoxylate.

Read-outs that look alike come from different tables or passages of the source.

T2 sequence (Q01827 whole entry): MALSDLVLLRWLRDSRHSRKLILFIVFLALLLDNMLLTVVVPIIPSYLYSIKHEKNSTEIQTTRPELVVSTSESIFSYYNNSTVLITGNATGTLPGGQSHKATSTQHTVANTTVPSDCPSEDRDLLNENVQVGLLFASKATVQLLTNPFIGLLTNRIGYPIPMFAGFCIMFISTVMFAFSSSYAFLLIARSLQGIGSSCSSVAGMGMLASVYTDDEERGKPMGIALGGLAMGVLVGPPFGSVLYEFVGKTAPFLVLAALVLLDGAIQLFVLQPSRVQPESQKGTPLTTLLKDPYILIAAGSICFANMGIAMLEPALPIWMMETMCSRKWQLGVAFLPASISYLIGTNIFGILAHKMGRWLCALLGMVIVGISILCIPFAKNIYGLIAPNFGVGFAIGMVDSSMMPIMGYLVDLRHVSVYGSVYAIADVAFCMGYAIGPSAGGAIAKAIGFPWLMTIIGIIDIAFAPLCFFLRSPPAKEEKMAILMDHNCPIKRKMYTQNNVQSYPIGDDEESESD

Regarding `CC(=O)CC(=O)O` [acetoacetate], the IC50 in test [1] (setting [6]) is 130 µmol/L; in test [2] it was more than 10000 µM; in test [3] (setting [6]) it was 190 µmol/L; in test [4], more than 10000 µM; in test [5], more than 10000 µM.
In the case of `O=CC(=O)O` [glyoxylate], the IC50 in test [1] (setting [7]) is 52 µmol/L; in test [2] it was more than 10000 µM; in test [3] (setting [7]), 4.1 µmol/L; in test [4], more than 10000 µM; in test [5], more than 10000 µM.
